Source: patent US7666848B2, “Thiophene glycoside derivatives, processes for the preparation, medicaments comprising these compounds, and the use thereof” (Sanofi-Aventis Deutschland GmbH, priority 2002, dated 2010)

Test system: rabbit renal cortex brush border membrane vesicles
Experiment: Uptake of [14C]-labeled glucose into brush border membrane vesicles (transport assay, membrane filtration method)
Assay type: biochemical
Settings: transport assay on rabbit renal cortex brush border membrane vesicles; 10 μM [14C]D glucose, 30° C., 15 seconds; β-D-gluco form

Compound	IC25
COc1ccc(Cc2sccc2OC2OC(CO)C(O)C(O)C2O)cc1 (centres unmarked) [Example 7, 2-Hydroxymethl-6-[2-(4-methoxy-benzyl)-thiophen-3-yloxy]-tetrahydro-pyran-3,4,5-triol]	1.1 µM
COc1ccc(Cc2sc(C(F)(F)F)cc2OC2OC(CO)C(O)C(O)C2O)cc1 (centres unmarked) [Example 54]	1.4 µM
